Measurements taken from patent publication US7521418B2, “Use of a polyene macrolide antifungal agent in combination with a glycopeptide antibacterial agent” (Theravance, Inc., priority 2003, dated 2009).

How the values were obtained:
C. krusei ATCC 32672 = test: Checkerboard MIC assay, FICI; format: cell-based, Candida krusei
From the text: (§1) The following assay was used to determine the minimum inhibitory concentration (MIC) and fractional inhibitory concentration index (FICI) for combinations of an antifungal agent and a glycopeptide antibacterial agent. This assay and methods for calculating FICI are well known in the art. See, for example, Eliopoulos, E. G. and R. Moellering, Jr. “Antimicrobial Combinations” in Antibiotics in Laboratory Medicine, edited by V. Lorian, 4th Ed., Williams & Wilkins, Baltimore, MD, pp. 330-396 (1996); […] et al., Antimicrobial Agents and Chemotherapy 47(4):1416-1418 (2003); or […] et al., Antimicrobial Agents and Chemotherapy 46(10):3323-3326 (2002). Procedures, protocols, supplies and equipment used in this assay follow the recommendations approved and published by the National Committee for Clinical Laboratory Standards (NCCLS), Wayne, Pa. as described in NCCLS 2003, “Reference Method for Broth Dilution Antimicrobial Susceptibility Tests for Bacteria that Grow Aerobically; Approved Standard” (NCCLS document M7-A6); NCCLS 2002, “Reference Method for Broth Dilution Antifungal Susceptibility Tests of Filamentous Fungi that Grow Aerobically; Approved Standard” (NCCLS document M38-A); and NCCLS 2002 “Reference Method for Broth Dilution Antifungal Susceptibility Tests of Yeast; Approved Standards-2nd Edition” (NCCLS document M27-A2). Using a checkerboard method, a 2-fold dilution 100× final concentration master plate was prepared using a 96-well U-shape microtiter plate and an appropriate solvent. In the “checkerboard” method, a microtiter plate is divided into “columns” in which each well in the column contains the same amount of an antifungal agent (Compound A) being diluted along the x-axis, and “rows” in which each well in the row contains the same amount of a glycopeptide antibacterial agent (Compound B) being diluted on the y-axis. Also included is a row (or column) for Compound A or B alone. The dilutions used in the checkerboard are exponential (by powers of two). The result is that each well in the microtiter plate contains a unique concentration of the two compounds being tested. […] After mixing, 100 μL of 2× drug combinations were distributed into 96-well microtiter plates. […] Compound A was not added to Column 12, so Column 12 contained only Compound B. Compound B was diluted from row A starting at 6,400 μg/mL down to row G (100 μg/mL). Wells in Row A contained a final concentration of 64 μg/mL of Compound B; Row B contained a final concentration of 32 μg/mL of Compound B; Row C contained a final concentration of 16 μg/mL of Compound B; etc. Compound B was not added to Row H, so Row H only contained Compound A. […] The MIC of the glycopeptide antibacterial agent determined from this experiment was used in FIC calculations. […] RPMI-1640 without sodium bicarbonate media (GIBCO-BRL, Carlsbad, Calif.), an enriched media formulated for mammalian cells, was used according to the NCCLS guidelines for yeast and filamentous fungi susceptibility testing. The medium was buffered with 0.165 M 3-[N-Morpholino]propanesulfonic acid (MOPS) supplemented with 20 g/L glucose and pH adjusted to 7.0 with hydrogen chloride. Sabouraud Dextrose Agar ([…] plates, and Potato Dextrose Agar (PDA) plates were purchased from Hardy Diagnostic (Santa Maria, Calif.). Yeast cultures were started from -80° C. frozen stock streaked on […] incubated at 35° C. under aerobic conditions for 24 h. The […] in the refrigerator for up to 2 weeks and used regularly as a starting culture. About 24 to 48 h before each assay was run, yeasts were streaked on SDA plates for isolated colonies. To prepare the inoculum, from one to four colonies were resuspended in 5 mL of saline, and vortexed for 15 sec. […] For most yeast and mold cultures, the optical density (OD) of the suspension was adjusted to 0.11 in saline to provide 0.4×10^6 CFU/mL. However, for Fusarium moniliforme and Pseudallescheria boydii the OD of the suspension was adjusted to OD=0.17 to provide 0.4×10^6 CFU/mL. […]

C. tropicalis ATCC 750 = test: Checkerboard MIC assay, FICI; format: cell-based, Candida tropicalis
From the text: as §1

C. albicans ATCC 24433 = test: Checkerboard MIC assay, FICI; format: cell-based, Candida albicans
From the text: as §1

[1] = tested on: C. parapsilosis ATCC 22019; test: Checkerboard MIC assay, FICI; format: cell-based, Candida parapsilosis
From the text: as §1

C. glabrata ATCC 200918 = test: Checkerboard MIC assay, FICI; format: cell-based, Candida glabrata; conditions: combination with Compound 1
From the text: The following assay was used to determine the minimum inhibitory concentration (MIC) and fractional inhibitory concentration index (FICI) for combinations of an antifungal agent and a glycopeptide antibacterial agent. This assay and methods for calculating FICI are well known in the art. See, for example, Eliopoulos, E. G. and R. Moellering, Jr. “Antimicrobial Combinations” in Antibiotics in Laboratory Medicine, edited by V. Lorian, 4th Ed., Williams & Wilkins, Baltimore, MD, pp. 330-396 (1996); […] et al., Antimicrobial Agents and Chemotherapy 47(4):1416-1418 (2003); or […] et al., Antimicrobial Agents and Chemotherapy 46(10):3323-3326 (2002). Procedures, protocols, supplies and equipment used in this assay follow the recommendations approved and published by the National Committee for Clinical Laboratory Standards (NCCLS), Wayne, Pa. as described in NCCLS 2003, “Reference Method for Broth Dilution Antimicrobial Susceptibility Tests for Bacteria that Grow Aerobically; Approved Standard” (NCCLS document M7-A6); NCCLS 2002, “Reference Method for Broth Dilution Antifungal Susceptibility Tests of Filamentous Fungi that Grow Aerobically; Approved Standard” (NCCLS document M38-A); and NCCLS 2002 “Reference Method for Broth Dilution Antifungal Susceptibility Tests of Yeast; Approved Standards-2nd Edition” (NCCLS document M27-A2). Using a checkerboard method, a 2-fold dilution 100× final concentration master plate was prepared using a 96-well U-shape microtiter plate and an appropriate solvent. In the “checkerboard” method, a microtiter plate is divided into “columns” in which each well in the column contains the same amount of an antifungal agent (Compound A) being diluted along the x-axis, and “rows” in which each well in the row contains the same amount of a glycopeptide antibacterial agent (Compound B) being diluted on the y-axis. Also included is a row (or column) for Compound A or B alone. The dilutions used in the checkerboard are exponential (by powers of two). The result is that each well in the microtiter plate contains a unique concentration of the two compounds being tested. […] After mixing, 100 μL of 2× drug combinations were distributed into 96-well microtiter plates. […] Compound A was not added to Column 12, so Column 12 contained only Compound B. Compound B was diluted from row A starting at 6,400 μg/mL down to row G (100 μg/mL). Wells in Row A contained a final concentration of 64 μg/mL of Compound B; Row B contained a final concentration of 32 μg/mL of Compound B; Row C contained a final concentration of 16 μg/mL of Compound B; etc. Compound B was not added to Row H, so Row H only contained Compound A. […] The MIC of the glycopeptide antibacterial agent determined from this experiment was used in FIC calculations. […]

various strains of fungi = test: Assay for determining MIC and FICI, summary over strains; format: cell-based; conditions: combination with amphotericin B
From the text: The following assay was used to determine the minimum inhibitory concentration (MIC) and fractional inhibitory concentration index (FICI) for combinations of an antifungal agent and a glycopeptide antibacterial agent. This assay and methods for calculating FICI are well known in the art. See, for example, Eliopoulos, E. G. and R. Moellering, Jr. “Antimicrobial Combinations” in Antibiotics in Laboratory Medicine, edited by V. Lorian, 4th Ed., Williams & Wilkins, Baltimore, MD, pp. 330-396 (1996); Shalit et al., Antimicrobial Agents and Chemotherapy 47(4):1416-1418 (2003); or Afeltra et al., Antimicrobial Agents and Chemotherapy 46(10):3323-3326 (2002).
Procedures, protocols, supplies and equipment used in this assay follow the recommendations approved and published by the National Committee for Clinical Laboratory Standards (NCCLS), Wayne, Pa. as described in NCCLS 2003, “Reference Method for Broth Dilution Antimicrobial Susceptibility Tests for Bacteria that Grow Aerobically; Approved Standard” (NCCLS document M7-A6); NCCLS 2002, “Reference Method for Broth Dilution Antifungal Susceptibility Tests of Filamentous Fungi that Grow Aerobically; Approved Standard” (NCCLS document M38-A); and NCCLS 2002 “Reference Method for Broth Dilution Antifungal Susceptibility Tests of Yeast; Approved Standards-2nd Edition” (NCCLS document M27-A2). […]

[2] = combination with Amphotericin B, C. krusei 32672
[3] = combination with Amphotericin B, C. tropicalis 750
[4] = combination with Amphotericin B, C. albicans 24433
[5] = combination with Amphotericin B, C. parapsilosis 22019
[6] = combination with Compound 1, C. krusei ATCC 32672
[7] = combination with Compound 1, C. tropicalis ATCC 750
[8] = combination with Compound 1, C. albicans ATCC 24433
[9] = combination with Compound 1, C. parapsilosis ATCC 22019

Compound	FICI (C. krusei ATCC 32672; [2])	FICI (C. tropicalis ATCC 750; [3])	FICI (C. albicans ATCC 24433; [4])	FICI [1, 5]	FICI (C. krusei ATCC 32672; [6])	FICI (C. tropicalis ATCC 750; [7])	FICI (C. albicans ATCC 24433; [8])	FICI [1, 9]	FICI (C. glabrata ATCC 200918)	effect of the combination (various strains of fungi)
CCCCCCCCCCNCCN[C@@]1(C)C[C@H](O[C@H]2[C@H](Oc3c4cc5cc3Oc3ccc(cc3Cl)[C@@H](O)[C@@H](NC(=O)[C@@H](CC(C)C)NC)C(=O)N[C@@H](CC(N)=O)C(=O)N[C@H]5C(=O)N[C@H]3C(=O)N[C@H](C(=O)N[C@H](C(=O)O)c5cc(O)c(CNCP(=O)(O)O)c(O)c5-c5cc3ccc5O)[C@H](O)c3ccc(c(Cl)c3)O4)O[C@H](CO)[C@@H](O)[C@@H]2O)O[C@@H](C)[C@H]1O [Compound 1, telavancin]	0.31	0.31	0.31	0.31						
OC(Cn1cncn1)(Cn1cncn1)c1ccc(F)cc1F [Fluconazole]					2.00	2.00	2.00	2.00	2.00	
Clc1ccc(COC(Cn2ccnc2)c2ccc(Cl)cc2Cl)c(Cl)c1 (centres unmarked) [Miconazole, miconazole]						2.00	2.00	2.00		
CN[C@H](CC(C)C)C(=O)N[C@H]1C(=O)N[C@@H](CC(N)=O)C(=O)N[C@H]2C(=O)N[C@H]3C(=O)N[C@H](C(=O)N[C@H](C(=O)O)c4cc(O)cc(O)c4-c4cc3ccc4O)[C@H](O)c3ccc(c(Cl)c3)Oc3cc2cc(c3O[C@@H]2O[C@H](CO)[C@@H](O)[C@H](O)[C@H]2O[C@H]2C[C@](C)(N)[C@H](O)[C@H](C)O2)Oc2ccc(cc2Cl)[C@H]1O [Vancomycin]	2.00	2.00	2.00	2.00						not synergistic or additive
C[C@@H](c1ncncc1F)[C@](O)(Cn1cncn1)c1ccc(F)cc1F [Voriconazole, voriconazole]					1.13				1.13	
Teicoplanin	0.38	0.38	0.53	0.38						
